# In patent US20210188856A1, “CRYSTAL FORM OF HYDROCHLORIDE OF PYRAZOLOHETEROARYL DERIVATIVE AND PREPARATION METHOD” (JIANGSU HENGRUI MEDICINE CO., LTD., priority 2018, published 2021):
# Experiment: Influencing factors stability (heating, light illumination, high humidity; spread and uncovered, 20 days)
# Assay type: physicochemical
# Details: for Maximum single impurity / Purity / Total impurities: monohydrochloride; for stability under the influencing factor conditions (in words): light illumination
# Description: Example 6: the crystal form I of the dihydrochloride salt of the compound represented by formula (I) (example 1) was spread and uncovered, and the steadily of the sample was evaluated under heating (40° C., 60° C.), light illumination (4500 Lux), and high humidity (RH 75%, RH 90%) with a period of 20 days.
# (§1) Example 10: the crystal form A (example 7) of the monohydrochloride salt of the compound of formula (I) was spread and uncovered, and the stability of the sample was evaluated under heating (40° C., 60° C.), light illumination (4500 Lux), high humidity (RH 75%, RH 90%) conditions with a period of 20 days.
# as §1, with “Example 11:” for “Example 10:”, “form B” for “form A (example 7)”, “compound represented by” for “compound of”, “(I) (example 8)” for “(I)”
# as §1, with “Example 12:” for “Example 10:”, “form C” for “form A (example 7)”, “compound represented by” for “compound of”, “(I) (example 9)” for “(I)”
# [1] = light illumination (4500 Lux), 4 days
# [2] = light illumination (4500 Lux), 10 days
# [3] = light illumination (4500 Lux), 20 days
# [4] = 40° C., 60° C., 75% RH, 90% RH, 20 days
compound,measurement,setting,value
"CCCCOc1nc(N)c2cnn(Cc3ccc(CN4CCCC4)cc3)c2n1.Cl [crystal form A, 6-butoxy-1-(4-(pyrrolidin-1-ylmethyl)benzyl)-1H-pyrazolo[3,4-d]pyrimidin-4-amine monohydrochloride]",Maximum single impurity,0 day,0.09%
same,Purity,0 day,99.74%
same,Total impurities,0 day,0.26%
same,Maximum single impurity,"40° C., 4 days",0.09%
same,Purity,"40° C., 4 days",99.72%
same,Total impurities,"40° C., 4 days",0.28%
same,Maximum single impurity,"40° C., 10 days",0.06%
same,Purity,"40° C., 10 days",99.72%
same,Total impurities,"40° C., 10 days",0.28%
same,Maximum single impurity,"40° C., 20 days",0.06%
same,Purity,"40° C., 20 days",99.70%
same,Total impurities,"40° C., 20 days",0.30%
same,Maximum single impurity,"60° C., 4 days",0.08%
same,Purity,"60° C., 4 days",99.72%
same,Total impurities,"60° C., 4 days",0.28%
same,Maximum single impurity,"60° C., 10 days",0.06%
same,Purity,"60° C., 10 days",99.75%
same,Total impurities,"60° C., 10 days",0.25%
same,Maximum single impurity,"60° C., 20 days",0.06%
same,Purity,"60° C., 20 days",99.70%
same,Total impurities,"60° C., 20 days",0.30%
same,Maximum single impurity,"75% RH, 4 days",0.09%
same,Purity,"75% RH, 4 days",99.72%
same,Total impurities,"75% RH, 4 days",0.28%
same,Maximum single impurity,"75% RH, 10 days",0.06%
same,Purity,"75% RH, 10 days",99.74%
same,Total impurities,"75% RH, 10 days",0.26%
same,Maximum single impurity,"75% RH, 20 days",0.08%
same,Purity,"75% RH, 20 days",99.68%
same,Total impurities,"75% RH, 20 days",0.32%
same,Maximum single impurity,"90% RH, 4 days",0.08%
same,Purity,"90% RH, 4 days",99.72%
same,Total impurities,"90% RH, 4 days",0.28%
same,Maximum single impurity,"90% RH, 10 days",0.06%
same,Purity,"90% RH, 10 days",99.76%
same,Total impurities,"90% RH, 10 days",0.24%
same,Maximum single impurity,"90% RH, 20 days",0.08%
same,Purity,"90% RH, 20 days",99.72%
same,Total impurities,"90% RH, 20 days",0.28%
same,Maximum single impurity,[1],0.09%
same,Purity,[1],99.70%
same,Total impurities,[1],0.30%
same,Maximum single impurity,[2],0.06%
same,Purity,[2],99.75%
same,Total impurities,[2],0.25%
same,Maximum single impurity,[3],0.08%
same,Purity,[3],99.63%
same,Total impurities,[3],0.37%
same,stability under the influencing factor conditions (in words),[4],good
"CCCCOc1nc(N)c2cnn(Cc3ccc(CN4CCCC4)cc3)c2n1.Cl [crystal form B, 6-butoxy-1-(4-(pyrrolidin-1-ylmethyl)benzyl)-1H-pyrazolo[3,4-d]pyrimidin-4-amine monohydrochloride]",Maximum single impurity,0 day,0.10%
same,Purity,0 day,99.54%
same,Total impurities,0 day,0.46%
same,Maximum single impurity,"40° C., 4 days",0.19%
same,Purity,"40° C., 4 days",99.31%
same,Total impurities,"40° C., 4 days",0.69%
same,Maximum single impurity,"40° C., 10 days",0.10%
same,Purity,"40° C., 10 days",99.53%
same,Total impurities,"40° C., 10 days",0.47%
same,Maximum single impurity,"40° C., 20 days",0.14%
same,Purity,"40° C., 20 days",99.39%
same,Total impurities,"40° C., 20 days",0.61%
same,Maximum single impurity,"60° C., 4 days",0.14%
same,Purity,"60° C., 4 days",99.34%
same,Total impurities,"60° C., 4 days",0.66%
same,Maximum single impurity,"60° C., 10 days",0.10%
same,Purity,"60° C., 10 days",99.42%
same,Total impurities,"60° C., 10 days",0.58%
same,Maximum single impurity,"60° C., 20 days",0.10%
same,Purity,"60° C., 20 days",99.21%
same,Total impurities,"60° C., 20 days",0.79%
same,Maximum single impurity,"75% RH, 4 days",0.11%
same,Purity,"75% RH, 4 days",99.54%
same,Total impurities,"75% RH, 4 days",0.46%
same,Maximum single impurity,"75% RH, 10 days",0.10%
same,Purity,"75% RH, 10 days",99.61%
same,Total impurities,"75% RH, 10 days",0.39%
same,Maximum single impurity,"75% RH, 20 days",0.10%
same,Purity,"75% RH, 20 days",99.57%
same,Total impurities,"75% RH, 20 days",0.43%
same,Maximum single impurity,"90% RH, 4 days",0.10%
same,Purity,"90% RH, 4 days",99.54%
same,Total impurities,"90% RH, 4 days",0.46%
same,Maximum single impurity,"90% RH, 10 days",0.10%
same,Purity,"90% RH, 10 days",99.61%
same,Total impurities,"90% RH, 10 days",0.39%
same,Maximum single impurity,"90% RH, 20 days",0.10%
same,Purity,"90% RH, 20 days",99.59%
same,Total impurities,"90% RH, 20 days",0.41%
same,Maximum single impurity,[1],0.10%
same,Purity,[1],99.51%
same,Total impurities,[1],0.49%
same,Maximum single impurity,[2],0.10%
same,Purity,[2],99.56%
same,Total impurities,[2],0.44%
same,Maximum single impurity,[3],0.11%
same,Purity,[3],99.45%
same,Total impurities,[3],0.55%
same,stability under the influencing factor conditions (in words),[4],good
"CCCCOc1nc(N)c2cnn(Cc3ccc(CN4CCCC4)cc3)c2n1.Cl [crystal form C, 6-butoxy-1-(4-(pyrrolidin-1-ylmethyl)benzyl)-1H-pyrazolo[3,4-d]pyrimidin-4-amine monohydrochloride]",Maximum single impurity,0 day,0.10%
same,Purity,0 day,99.55%
same,Total impurities,0 day,0.45%
same,Maximum single impurity,"40° C., 4 days",0.10%
same,Purity,"40° C., 4 days",99.55%
same,Total impurities,"40° C., 4 days",0.45%
same,Maximum single impurity,"40° C., 10 days",0.10%
same,Purity,"40° C., 10 days",99.60%
same,Total impurities,"40° C., 10 days",0.40%
same,Maximum single impurity,"40° C., 20 days",0.10%
same,Purity,"40° C., 20 days",99.53%
same,Total impurities,"40° C., 20 days",0.47%
same,Maximum single impurity,"60° C., 4 days",0.10%
same,Purity,"60° C., 4 days",99.50%
same,Total impurities,"60° C., 4 days",0.50%
same,Maximum single impurity,"60° C., 10 days",0.10%
same,Purity,"60° C., 10 days",99.58%
same,Total impurities,"60° C., 10 days",0.42%
same,Maximum single impurity,"60° C., 20 days",0.13%
same,Purity,"60° C., 20 days",99.42%
same,Total impurities,"60° C., 20 days",0.58%
same,Maximum single impurity,"75% RH, 4 days",0.11%
same,Purity,"75% RH, 4 days",99.55%
same,Total impurities,"75% RH, 4 days",0.45%
same,Maximum single impurity,"75% RH, 10 days",0.09%
same,Purity,"75% RH, 10 days",99.61%
same,Total impurities,"75% RH, 10 days",0.39%
same,Maximum single impurity,"75% RH, 20 days",0.10%
same,Purity,"75% RH, 20 days",99.57%
same,Total impurities,"75% RH, 20 days",0.43%
same,Maximum single impurity,"90% RH, 4 days",0.11%
same,Purity,"90% RH, 4 days",99.51%
same,Total impurities,"90% RH, 4 days",0.49%
same,Maximum single impurity,"90% RH, 10 days",0.10%
same,Purity,"90% RH, 10 days",99.61%
same,Total impurities,"90% RH, 10 days",0.39%
same,Maximum single impurity,"90% RH, 20 days",0.10%
same,Purity,"90% RH, 20 days",99.58%
same,Total impurities,"90% RH, 20 days",0.42%
same,Maximum single impurity,[1],0.11%
same,Purity,[1],99.57%
same,Total impurities,[1],0.43%
same,Maximum single impurity,[2],0.09%
same,Purity,[2],99.64%
same,Total impurities,[2],0.36%
same,Maximum single impurity,[3],0.10%
same,Purity,[3],99.54%
same,Total impurities,[3],0.46%
same,stability under the influencing factor conditions (in words),[4],good
